The values below come from US5066671A, “Ellagic acid derivatives as phospholipase A2 inhibitors” (American Home Products Corporation, priority 1990, dated 1991).

The conditions of test [1]: Derwent Publications 78-88538A; cited from earlier work.
The test system of test [2] is paw edema induced by the exogenous administration of PLA2. The test is classed as in vivo, male CD-1 mice.
Test [3] has the same test system. The test is described as follows: animal or person. The test is classed as in vivo, male CD-1 mice. The note with it: for ED50 mg/kg p.o. at +10 min. (result in words) / % Change in Edema, 10 min: 10 min after PLA2 injection; for ED50 mg/kg p.o. at +10 min. (result in words): standard drugs; for ED50: Mus musculus, 10 min, read-out: ED50 mg/kg p.o. at +10 min.; for ED50 / ED50 mg/kg p.o. at +10 min.: po; for ED50 mg/kg p.o. at +10 min.: mouse, in vivo; for % Change in Edema, 30 min: 30 min after PLA2 injection; for % Change in Edema, 60 min: 60 min after PLA2 injection. As for the experimental part:
The ability of the compounds of the invention to inhibit paw edema induced by the exogenous administration of PLA2 is measured in the in vivo PLA2 murine paw edema assay.
The assay is carried out as follows:
Non-fasted, male CD-1 mice (8 weeks old; 31-36 grams) are placed in plastic boxes in groups of six. The right hind paw volume is measured using mercury plethysmography (zero time). Compounds are dosed orally (0.5 mL of 0.5% Tween80) 1 or 3 hours prior to PLA2 injection or intravenously (0.2 mL in 0.3% dimethylsulfoxide/saline) 3 minutes prior to PLA2 injection. A solution of purified PLA2, from the diamond back cotton mouth snake (A. piscivorus piscivorus) is prepared in saline at a concentration of 6 μg/mL. Fifty (50) μL (0.3 μg) of this PLA2 solution is injected subcutaneously into the right hind paw with a plastic 1 mL plastic syringe (27 gauge, 1" needle). Paw volume of the injected paw is measured again at 10 minutes, 30 minutes and 60 minutes after PLA2 injection. Animals are euthanized with CO2 at the completion of the study.
The paw edema is calculated by subtracting the zero time volume from the volume recorded at each time period. Mean paw edema for each treatment group is then calculated and expressed as (μL±S.E.). Drug effects are expressed as a percent change from control (vehicle) values. Statistical significance is determined by a oneway analysis of variance with LSD comparison to control (p<0.05). ED50 's are determined using repression analysis.

The next test has as its system carrageenan paw edema. The test is described as follows: rat carrageenan paw edema assay. The test is classed as in vivo, male Sprague-Dawley rats. The note with it: for ED50: Rattus norvegicus, po, 3 h, read-out: Oral ED50 (95% C.L.) mg/kg. As for the experimental part: The compounds of the invention are tested in the rat carrageenan paw edema assay to determine their ability to inhibit the acute inflammatory response.
(§1) This assay is carried out as follows:
140-180 gm male Sprague-Dawley rats, in groups of 6 animals, are injected subcutaneously in the right paw with 0.1 ml of 1% carrageenan at zero time. Mercury plethysmographic readings (ml) of the paw are made at zero time and 3 hours later. Test compounds are suspended or dissolved in 0.5% methylcellulose and given perorally 1 hour prior to carrageenan administration.
The increase in paw volume (edema in ml) produced by the carrageenan is measured. Paw edema is calculated (3 hour volume minus zero time volume), and percent inhibition of edema is determined. Unpaired Student's t-test is used to determine statistical significance.
Background: The carrageenan paw model is a standard test of acute inflammation.

For a further test, the target named is T1, Human Platelet PLA2 (Homo sapiens, UniProt P14555).
T1 construct: platelet acid extract PLA2; from tissue; host or cells: human platelets (semipurified acid extract)
T1 sequence (P14555 21-144): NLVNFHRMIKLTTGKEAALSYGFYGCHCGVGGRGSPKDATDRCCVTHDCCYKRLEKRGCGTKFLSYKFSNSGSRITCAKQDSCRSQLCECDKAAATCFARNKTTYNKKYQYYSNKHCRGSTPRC
The test is described as follows: in vitro isolated phospholipase A2 assay, human platelet PLA2. The test is classed as biochemical. The method, then: (§2) The compounds of the invention are tested in an in vitro isolated phospholipase A2 assay to determine the ability of the test compounds to inhibit the release of arachidonic acid from an arachidonic acid-containing substrate by the action of phospholipase A2 enzyme from human and non-human sources.
as §1
(§3) Into a 15 mL polypropylene tube are added the following:
(§4) ^3 H-AA E.coli substrate^1
(§5) PLA2 25 Volume yielding 12%
(§6) 100 hydrolysis in 10 min.
(§7) *pre-incubate at room temperature 30 min prior to substrate addition.
(§8) ^5 Stock 10 mM prepared in dimethyl sulfoxide. Make 1:2 dilution with
(§9) dimethyl sulfoxide and add 1 μL to 100 μL assay tube.
(§10) ^ 6 Two human PLA2 enzymes are used: (a) Semipurified human
(§11) platelet acid extract PLA2 (in 10 mM sodium acetate buffer, pH 4.5).
(§12) Remove protein precipitate by centrifugation at about 2200 rpm for 10
(§13) minutes. (b) Purified human synovial fluid.
(§14) Incubate the 100 μL reaction mixture for 10 minutes at 37° C. in a shaking water bath. The reaction is terminated by the addition of 2 mL tetrahydrofuran, followed by vortexing. NH2 columns (100 μg/mL-Analytichem International) are conditioned with 0.5 mL tetrahydrofuran followed by 0.5 mL tetrahydrofuran/water (2 mL:0.1 mL, v/v).
(§15) The sample is loaded onto the columns and slowly drawn through them. The hydrolyzed arachidonic acid retained in the columns is eluted therefrom with 1 mL tetrahydrofuran/glacial acetic acid (2%). The arachidonic acid is transferred to scintillation vials and quantitated by β-counting analysis. A "total counts" sample is prepared by pipetting 25 μL ^3 H-arachidonate E. coli directly into a scintillation vial to which is added 1 mL tetrahydrofuran. 10 mL aquasol (scintillation cocktail) is added to all samples. [formula]

The target of another test is T2, Human Synovial PLA2 (Homo sapiens, UniProt P14555).
T2 construct: Purified human synovial fluid; from tissue; host or cells: human synovial fluid (purified)
T2 sequence (P14555 21-144): T1 sequence (P14555 21-144)
Put plainly: in vitro isolated phospholipase A2 assay, human synovial fluid PLA2. The test is classed as biochemical. The note with it: for IC50: compounds of the invention, read-out: IC50 HSF (human synovial fluid). The method, then:
as §2, §1, §3, §4, §5, §6, §7, §8, §9, §10, §11, §12, §13, §14, §15

A further test deals with Hageman factor. The note with it: Ratnoff et al., J. Lab. Clin. Med. 63, 359 (1964); cited from earlier work.
In test [4] the test system is synthesis of LTB4 by rat glycogen-elicited polymorphonuclear leukocytes. Put plainly: inhibition of LTB4 synthesis by rat glycogen-elicited polymorphonuclear leukocytes (PMN). It counts as cell-based. The note with it: Leukocyte.
Experimental: Accordingly, the specificity of action of PLA2 inhibitors can be determined by the activity of test compounds in this assay, which measures the ability of compounds to inhibit the synthesis of LTB4 by rat glycogen-elicited polymorphonuclear leukocytes (PMN) in the presence of exogenous substrate.
To 1 mL aliquots of cell suspension, test drugs or vehicle are added, then preincubated at 37° C. for 10 minutes. A23187 (1 μM), [^3 H]-AA (3.0 μCi/mL) and unlabeled AA (1 μM) are then added and the samples are further incubated for 10 minutes. […]
Injections: 140 μL of each supernatant is injected directly onto column and ^3 H arachidonic acid metabolites are monitored using an on-line radioactivity detector (Ramona, IN/US, Fairfield, NJ). […]
Results are expressed as percent inhibition at a given compound dose.
Test [5] relates to synthesis of the arachidonic acid cyclooxygenase oxidation product TxB2. The test is described as follows: inhibition of TxB2 synthesis by rat polymorphonuclear leukocytes (cyclooxygenase activity). The test is classed as cell-based. The note with it: rat PMN. The method, then: Rat polymorphonuclear leukocytes (PMNs) are obtained from female Wistar rats (150-200 g) which receive an injection of 6% glycogen (10 ml i.p.). Rats are sacrificed 18-24 hours post injection by CO2 asphyxiation and the elicited cells are harvested by peritoneal lavage using physiological saline (0.9% NaCl). The exudate is centrifuged at 400 xg for 10 minutes. The supernatant fluid is discarded and the cell pellet is resuspended to a concentration of 2.0×10^7 cells/mL in HBSS containing Ca^++ and Mg^++ and 10 μM L-cysteine.
To 1 mL aliquots of cell suspension, test drugs or vehicle are added, then preincubated at 37° C. for 10 minutes. A23187 (1 μM), [^3 H]-AA (3.0 μCi/mL) and unlabeled AA (1 μM) are then added and the samples are further incubated for 10 minutes. The reaction is terminated by centrifugation and pelleting cells. Supernatants are then analyzed by HPLC analysis on a 15 cm×4.6 mm ID supelcosil LC-18 (Supelco)(3M) column, using a two solvent system at a flow rate of 1.4 mL total flow as follows:
In this assay, the procedure of Example 1 is carried out as described. However, in order to determine cyclooxygenase activity, the samples are cochromatographed with authentic reference [^3 H]-TxB2.
The results are calculated as in Example 1 and presented below: […]

In the case of `COc1c(O)cc2c(=O)oc3c(OC)c(O)cc4c(=O)oc1c2c34` [3,3'dimethyl ellagic acid], in test [1], the antitumor activity entry is “antitumor activity”.

Regarding `COc1cccc2c1cc([N+](=O)[O-])c1c(C(=O)O)cc3c(c12)OCO3` [Aristolochic Acid, reference compound], the “inhibition only when coinjected with enzyme” value in test [2] was 30%. In test [3], the “ED50 mg/kg p.o. at +10 min. (result in words)” value is given as “Not Active”.

As for `CC(=O)Oc1ccccc1C(=O)O` [Aspirin], the ED50 in the test on carrageenan paw edema turned out to be 145 mg/kg.

With `NC1=NN(c2cccc(C(F)(F)F)c2)CC1` [BW755C, reference compound], the ED50 in [3] worked out at 50 mg/kg.

As for `CN1CCC(=C2c3ccccc3C=Cc3ccccc32)CC1` [Cyproheptadine, reference compound], the ED50 in test [3] came to 3.1 mg/kg.

With `C[C@@H]1C[C@H]2[C@@H]3CCC4=CC(=O)C=C[C@]4(C)[C@@]3(F)[C@@H](O)C[C@]2(C)[C@@]1(O)C(=O)CO` [Dexamethasone, reference compound], the “ED50 mg/kg p.o. at +10 min.” value in test [3] is listed as 10 mg/kg.

For the compound `O=c1oc2c(O)c(O)cc3c(=O)oc4c(O)c(O)cc1c4c23` [Example 1, 4, 4', 5, 5', 6, 6'-hexahydrodiphenic acid 2,6, 2', 6'-dilactone], the inhibition at 50 µM at Human Platelet PLA2 (at 50 μM (footnote +), read-out: % Inhibition, HP (human platelet)) turned out to be 38.8%; at Human Synovial PLA2 (at 50 μM (footnote +), read-out: % Inhibition, HSF (human synovial fluid)) it was 86.5%. Further, the “% Inhibition at 50 mg/kg (peroral)” value with carrageenan paw edema (50 mg/kg peroral, 1 hour prior to carrageenan, edema at 3 hours) was 37%. For the same compound, the “% Inhibition, HSF (human synovial fluid)” value at Human Synovial PLA2 (at 50 μM (footnote +), 50 µM) is 89.5%. Further, the IC50 at Human Synovial PLA2 worked out at 21 nM. Further, the “ability to activate Hageman factor” value in the test with Hageman factor is given as “ability to activate Hageman factor”. Moreover, the “% Change in Edema, 10 min” value is on record as -22% in [3] (10 mg/kg i.v.) and -35% in [3] (100 mg/kg p.o.). Moreover, the entries for the “% Change in Edema, 30 min” value in [3] (10 mg/kg i.v.) and in [3] (100 mg/kg p.o.) were -64% and “+4%”, respectively. Also, the figures for the “% Change in Edema, 60 min” value in test [3] (10 mg/kg i.v.) and in [3] (100 mg/kg p.o.) were -18% and -73%, respectively. Also, the inhibition at 10 µM was found to be 39% in [4] and 4% in test [5] (Leukocyte).

In the case of `CC(=O)Oc1cc2c(=O)oc3c(OC(C)=O)c(OC(C)=O)cc4c(=O)oc(c1OC(C)=O)c2c34` [Example 2, Ellagic Acid Tetraacetate], the inhibition at 10 µM on Human Platelet PLA2 (read-out: % Inhibition at 10 μM, HP (human platelet)) was -16.6%; on Human Synovial PLA2 (read-out: % Inhibition at 10 μM, HSF (human synovial fluid)), 90.7%; in [4], -31%.

On to `COc1ccc2c(c1)c(CC(=O)O)c(C)n2C(=O)c1ccc(Cl)cc1` [Indomethacin], for which, in the test with carrageenan paw edema, the ED50 was 3.7 mg/kg.

On to `COc1ccc2cc([C@H](C)C(=O)O)ccc2c1` [Naproxen, reference compound], for which the “ED50 mg/kg p.o. at +10 min.” value in test [3] came out at 18 mg/kg.

Take Ellagic Acid Diacetate [Example 3]: the “% Inhibition at 10 μM, HP (human platelet)” value on Human Platelet PLA2 (at 10 μM) worked out at 0%. In addition, the “% Inhibition at 10 μM, HSF (human synovial fluid)” value on Human Synovial PLA2 (at 10 μM) was 95.6%. Moreover, the concentration for half-maximal inhibition (IC50) at Human Synovial PLA2 amounted to 360 nM. Further, in test [5] (at 10 μM), the “% Inhibition (TxB2 synthesis)” value was 9%.

As for Luffarrellolide [reference compound], in test [2], the “inhibition only when coinjected with enzyme” value was found to be 30%. Moreover, the “ED50 mg/kg p.o. at +10 min. (result in words)” value in test [3] was “Not Active”.

One may read the inhibition as the drop in the measured response relative to a control, in per cent. As a reminder, the % Inhibition is the drop in the measured response relative to a control, in per cent. A low value points to a weak effect. As a reminder, the IC50 is the concentration at which inhibition is half-maximal.
